Test results published in PubChem BioAssay (NCI).
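Five compound concentrations were applied to cells in 96-well plates for 48 hours; endpoints were derived by simple linear interpolation of the resulting dose-response curve. Abbreviation: GI50, concentration required for 50% inhibition of growth. TGI: total growth inhibition.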

Assays:
Test in all cases: NCI anticancer screen, dose series, 48 h
COLO 205 colon = test system: COLO 205 colon
NCI/ADR-RES ovarian = test system: NCI/ADR-RES ovarian
OVCAR-5 ovarian = test system: OVCAR-5 ovarian
OVCAR-8 ovarian = test system: OVCAR-8 ovarian
SF-539 CNS = test system: SF-539 CNS
SK-MEL-2 melanoma = test system: SK-MEL-2 melanoma
SN12C renal = test system: SN12C renal
SNB-19 CNS = test system: SNB-19 CNS
U251 CNS = test system: U251 CNS
EKVX NSCLC = test system: EKVX NSCLC

SMILES	GI50 (COLO 205 colon) [µM]	TGI (COLO 205 colon) [µM]	GI50 (NCI/ADR-RES ovarian) [µM]	TGI (NCI/ADR-RES ovarian) [µM]	GI50 (OVCAR-5 ovarian) [µM]	TGI (OVCAR-5 ovarian) [µM]	GI50 (OVCAR-8 ovarian) [µM]	TGI (OVCAR-8 ovarian) [µM]	GI50 (SF-539 CNS) [µM]	TGI (SF-539 CNS) [µM]	GI50 (SK-MEL-2 melanoma) [µM]	TGI (SK-MEL-2 melanoma) [µM]	GI50 (SN12C renal) [µM]	TGI (SN12C renal) [µM]	GI50 (SNB-19 CNS) [µM]	TGI (SNB-19 CNS) [µM]	GI50 (U251 CNS) [µM]	TGI (U251 CNS) [µM]	TGI (EKVX NSCLC) [µM]	GI50 (EKVX NSCLC) [µM]
COc1ccc(-c2nnc(SCC(=O)Nc3ccc(C(=O)/C=C/c4cc(OC)c(OC)c(OC)c4)cc3)n2-c2ccccc2)cc1OC	> 10	> 10	> 10	> 10	> 10	> 10	5.29	> 10	3.2	> 10	> 10	> 10	> 10	> 10	> 10	> 10	5.39	> 10	–	–
Cc1ccc(/C=C/C(=O)c2ccc([N+](=O)[O-])cc2)cc1	–	> 100	–	–	–	> 100	–	> 100	–	> 100	–	> 100	–	> 100	–	> 100	–	> 100	> 100	–
C=C1CCC2C(C)(CO)C(O)CCC2(C)C1C/C=C1/CCOC1=O (configuration not stated)	–	> 100	–	–	–	> 100	–	> 100	–	> 100	–	> 100	–	> 100	–	> 100	–	> 100	> 100	–
CN(C)C(=S)/N=c1\ss/c(=N\C(=S)N(C)C)n1Cc1ccco1	–	> 100	–	–	–	–	–	> 100	–	> 100	–	> 100	–	> 100	–	> 100	–	> 100	–	–
OCC(O)COc1c(Cl)cc(Cl)cc1Cl (configuration not stated)	–	> 100	–	–	–	> 100	–	> 100	–	> 100	–	> 100	–	> 100	–	> 100	–	> 100	> 100	–
O=S1c2ccccc2NC(c2ccc3ccccc3c2)CC1c1ccccc1 (configuration not stated)	–	74.4	–	–	–	> 100	–	57	–	41.1	–	> 100	–	> 100	–	> 100	–	–	63.9	–
CCOC(=O)C(=O)Nc1ccccc1OCC	–	–	–	–	–	> 100	–	> 100	–	> 100	–	> 100	–	> 100	–	> 100	–	> 100	> 100	–
O=C1CCNC(=O)NC1	–	> 100	–	–	–	> 100	–	> 100	–	–	–	> 100	–	> 100	–	> 100	–	> 100	> 100	–
Oc1ccc2ccccc2c1N=Nc1ccc(Cl)cc1	–	> 100	–	> 100	–	> 100	–	> 100	–	–	–	> 100	–	> 100	–	> 100	–	> 100	> 100	–
O=C(O)c1cn(C2CC2)c2cc(N3CCNCC3)c(F)cc2c1=O	> 100	> 100	> 100	> 100	> 100	> 100	> 100	> 100	–	–	–	–	> 100	> 100	–	–	–	–	–	–
O=C1CC(c2ccsc2)c2snc(-c3ccc(Cl)cc3)c2N1 (configuration not stated)	0.527	2.57	0.364	2.37	5.92	> 100	3.01	> 100	2.9	> 100	3.93	> 100	3.77	> 100	3.78	> 100	1.75	> 100	–	–
COc1ccc(-c2nc(-c3ccccn3)c(-c3ccccn3)n2CC(C)C)cc1OC1CCCC1	52.2	> 165	6.96	> 165	26.5	> 165	17.3	158	33.8	99.7	38.4	80.2	24.5	> 165	30.2	> 165	20.6	86.9	–	–
COc1ccc(C(=O)/C=C/c2cc(-c3ccc4c(c3)OCO4)n[nH]2)cc1OC	3.84	14	–	–	3.36	23.2	2.15	5.82	1.91	4.47	6.93	23.2	3.25	13.6	3.2	15.2	1.58	5.37	–	–
Oc1ccc(Oc2cnc3cc(Cl)ccc3n2)cc1	92.4	> 100	35.7	> 100	> 100	> 100	> 100	> 100	49.4	> 100	–	–	34.2	> 100	91.6	> 100	54.7	> 100	74.4	13.2
O=C1CCCC(O)=C1SC1=C(O)CCCC1=O	–	> 100	–	–	–	> 100	–	> 100	–	> 100	–	> 100	–	> 100	–	> 100	–	> 100	> 100	–
CN1C(=O)CCC1c1ccc2c(c1)oc(=O)n2C (configuration not stated)	–	> 100	–	–	–	> 100	–	> 100	–	> 100	–	> 100	–	> 100	–	> 100	–	> 100	> 100	–
O=C(Oc1ccc2c(-c3ccccc3)c(C(=O)Nc3ccc(Cl)cc3)c(=O)oc2c1)c1ccccc1	–	> 100	–	–	–	–	–	> 100	–	> 100	–	> 100	–	> 100	–	> 100	–	> 100	> 100	–
Cc1cc(NCc2cc(Nc3ccnc4cc(Cl)ccc34)ccc2F)nc(N2CCSCC2)n1	–	–	1.55	4.02	2.21	8.25	2.54	9.23	1.79	3.35	2.15	4.71	–	–	4.23	60.7	1.76	3.28	83.9	2.8
NC(CCc1ncc(-c2ccccc2)s1)C(=O)O (configuration not stated)	–	> 100	–	–	–	–	–	> 100	–	> 100	–	–	–	> 100	–	> 100	–	> 100	> 100	–
O=c1ccn(C2(CO)C=C(CO)C(O)C2O)c(=O)[nH]1 (configuration not stated)	–	> 25.7	–	–	–	–	–	> 25.7	–	> 25.7	–	> 25.7	–	> 25.7	–	> 25.7	–	> 25.7	> 25.7	–
